Data: ChEMBL document CHEMBL5500423, “More than an Amide Bioisostere: Discovery of 1,2,4-Triazole-containing Pyrazolo[1,5-a]pyrimidine Host CSNK2 Inhibitors for Combatting β-Coronavirus Replication” (J Med Chem, 2024)
Blank lines part the entries; values can stand above or below the compound they belong to.

Assays:
[1] = molecular target: Casein kinase II subunit alpha' (Homo sapiens, UniProt P19784); test: Inhibition of NLuc-fused CSNK2A2 (unknown origin) expressed in HEK293 cells incubated for 2 hrs by NanoBRET assay; type: cell-based
[2] = system: Murine hepatitis virus; test: Antiviral activity against Murine hepatitis virus infected in mouse DBT cells preincubated with cells for 1 hrs followed by viral infection and measured after 10 hrs by luminometer; type: functional, organism-based; conditions: Murine coronavirus
[3] = Kinetic solubility of compound in PBS at pH 7.4 incubated for 24 hrs by HPLC analysis; type: physicochemical; conditions: buffer, pH 7.4, 24 h
[4] = Cytotoxicity against human A549-ACE2 cells assessed as cell viability at 1 uM incubated for 48 hrs by CellTiter-Glo2 assay relative to control; type: toxicity, cell-based; conditions: a549-ace2, 48 h
[5] = Cytotoxicity against human A549-ACE2 cells assessed as cell viability at 0.1 uM incubated for 48 hrs by CellTiter-Glo2 assay relative to control; type: toxicity, cell-based; conditions: a549-ace2, 48 h

Casein kinase II subunit alpha', sequence (P19784 whole entry, the tested form may be a part): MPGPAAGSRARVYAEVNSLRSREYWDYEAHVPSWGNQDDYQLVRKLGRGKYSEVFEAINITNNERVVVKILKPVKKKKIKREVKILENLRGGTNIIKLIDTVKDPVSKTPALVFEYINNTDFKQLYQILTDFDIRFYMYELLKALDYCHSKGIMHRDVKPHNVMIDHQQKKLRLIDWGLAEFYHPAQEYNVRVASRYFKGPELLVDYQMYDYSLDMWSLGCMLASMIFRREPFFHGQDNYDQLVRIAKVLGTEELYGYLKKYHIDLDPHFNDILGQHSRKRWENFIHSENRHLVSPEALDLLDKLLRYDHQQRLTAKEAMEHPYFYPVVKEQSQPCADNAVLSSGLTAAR

SMILES: COCCNc1ccc(Nc2cc(NC3CC3)n3ncc(C#N)c3n2)cc1-n1cnnc1
IC50 [1]: 126 nM
IC50 [2]: 316 nM
Kinetic_solubility [3]: 0.8 µg/mL
Activity [4]: 99%
Activity [5]: 99%

SMILES: N#Cc1cnn2c(NC3CC3)cc(Nc3cccc(-n4cc[nH]c4=O)c3)nc12
IC50 [1]: > 10000 nM
IC50 [2]: > 10000 nM

SMILES: CC(=O)N1CCC(Nc2cc(Nc3cccc(-n4cnnc4)c3)nc3c(C#N)cnn23)CC1
IC50 [1]: > 10000 nM
IC50 [2]: > 10000 nM

SMILES: N#Cc1cnn2c(NC3CC3)cc(Nc3cccc(C(=O)O)c3)nc12
IC50 [1]: > 10000 nM
IC50 [2]: > 10000 nM

SMILES: N#Cc1cnn2c(NC3CC3)cc(Nc3cccc(-c4nnco4)c3)nc12
IC50 [1]: 631 nM
IC50 [2]: 10000 nM

SMILES: CNCCN(C)c1ccc(Nc2cc(NC3CC3)n3ncc(C#N)c3n2)cc1-n1cnnc1
IC50 [1]: 126 nM
IC50 [2]: 1000 nM
Kinetic_solubility [3]: 16 µg/mL

SMILES: CC(C)(O)Cc1cccc(Nc2cc(NC3CC3)n3ncc(C#N)c3n2)c1
IC50 [1]: 398 nM
IC50 [2]: 7940 nM

SMILES: CN(CCO)c1ccc(Nc2cc(NC3CC3)n3ncc(C#N)c3n2)cc1-n1cnnc1
IC50 [1]: 126 nM
IC50 [2]: 200 nM
Kinetic_solubility [3]: 38 µg/mL
Activity [4]: 97%
Activity [5]: 95%

SMILES: N#Cc1cnn2c(NC3CC3)cc(Nc3cccc(-n4cnnn4)c3)nc12
IC50 [1]: 5.01 nM
IC50 [2]: > 10000 nM

SMILES: CCN(CCN)c1cc(F)c(Nc2cc(NC3CC3)n3ncc(C#N)c3n2)cc1-n1cnnc1
IC50 [1]: 501 nM
IC50 [2]: 1580 nM
Kinetic_solubility [3]: 39 µg/mL

SMILES: N#Cc1cnn2c(NC3CC3)cc(Nc3cccc(-c4cnn[nH]4)c3)nc12
IC50 [1]: 10 nM
IC50 [2]: 79.4 nM
Activity [4]: 85%
Activity [5]: 100%

SMILES: CS(=O)(=O)Cc1cccc(Nc2cc(NC3CC3)n3ncc(C#N)c3n2)c1
IC50 [1]: 50.1 nM
IC50 [2]: 158 nM

SMILES: CS(=O)(=O)Nc1cccc(Nc2cc(NC3CC3)n3ncc(C#N)c3n2)c1
IC50 [1]: 126 nM
IC50 [2]: 794 nM

SMILES: CNCCn1cnc(Nc2cc(Nc3cccc(-n4cnnc4)c3)nc3c(C#N)cnn23)c1
IC50 [1]: 1580 nM
IC50 [2]: > 10000 nM
Kinetic_solubility [3]: 8.4 µg/mL

SMILES: N#Cc1cnn2c(Nc3cn(CCN4CCCC4)cn3)cc(Nc3cccc(-n4cnnc4)c3)nc12
IC50 [1]: 200 nM
IC50 [2]: > 10000 nM
Kinetic_solubility [3]: 37 µg/mL

SMILES: N#Cc1cnn2c(NC3CC3)cc(Nc3ccc(N4CC[C@H](N)C4)c(-n4cnnc4)c3)nc12
IC50 [1]: 158 nM
IC50 [2]: 398 nM
Kinetic_solubility [3]: 49 µg/mL
Activity [4]: 85%

SMILES: CN[C@@H]1CCCN(c2cc(F)c(Nc3cc(NC4CC4)n4ncc(C#N)c4n3)cc2-n2cnnc2)C1
IC50 [1]: 158 nM
IC50 [2]: 1580 nM

More lines, in order of falling IC50 [1], values ahead:

IC50 [1]: 5010 nM
IC50 [2]: > 10000 nM
Kinetic_solubility [3]: 4.2 µg/mL
SMILES: N#Cc1cnn2c(Nc3cn(CCN4CCOCC4)cn3)cc(Nc3cccc(-n4cnnc4)c3)nc12

IC50 [1]: 5010 nM
IC50 [2]: > 10000 nM
SMILES: N#Cc1cnn2c(NC3CC3)cc(Nc3cccc(-c4ccccn4)c3)nc12

IC50 [1]: 794 nM
IC50 [2]: 3160 nM
Kinetic_solubility [3]: 63 µg/mL
SMILES: CN[C@@H]1CCCN(c2ccc(Nc3cc(NC4CC4)n4ncc(C#N)c4n3)cc2-n2cnnc2)C1

IC50 [1]: 631 nM
IC50 [2]: 7940 nM
SMILES: CP(C)(=O)Cc1cccc(Nc2cc(NC3CC3)n3ncc(C#N)c3n2)c1

IC50 [1]: 631 nM
IC50 [2]: 7940 nM
SMILES: CCNCCN(C)c1ccc(Nc2cc(NC3CC3)n3ncc(C#N)c3n2)cc1-n1cnnc1

IC50 [1]: 631 nM
IC50 [2]: 7940 nM
SMILES: N#Cc1cnn2c(NC3CC3)cc(Nc3cccc(CCO)c3)nc12

IC50 [1]: 251 nM
IC50 [2]: 2000 nM
Kinetic_solubility [3]: 37 µg/mL
SMILES: N#Cc1cnn2c(NC3CC3)cc(Nc3cc(-n4cnnc4)c(N4CC[C@H](N)C4)cc3F)nc12

IC50 [1]: 251 nM
IC50 [2]: 2510 nM
Kinetic_solubility [3]: 44 µg/mL
SMILES: N#Cc1cnn2c(NC3CC3)cc(Nc3ccc(N4CC[C@@H](N)C4)c(-n4cnnc4)c3)nc12

IC50 [1]: 126 nM
IC50 [2]: 631 nM
Kinetic_solubility [3]: 47 µg/mL
SMILES: N#Cc1cnn2c(NC3CC3)cc(Nc3ccc(N4CCC[C@H](N)C4)c(-n4cnnc4)c3)nc12

IC50 [1]: 126 nM
IC50 [2]: 2000 nM
Kinetic_solubility [3]: 56 µg/mL
SMILES: CN[C@H]1CCCN(c2ccc(Nc3cc(NC4CC4)n4ncc(C#N)c4n3)cc2-n2cnnc2)C1

IC50 [1]: 79.4 nM
IC50 [2]: 631 nM
Kinetic_solubility [3]: 25 µg/mL
SMILES: CN(CCN1CCOCC1)c1ccc(Nc2cc(NC3CC3)n3ncc(C#N)c3n2)cc1-n1cnnc1

IC50 [1]: 63.1 nM
IC50 [2]: 2510 nM
Kinetic_solubility [3]: 2.6 µg/mL
SMILES: CN(CCO)c1cc(F)c(Nc2cc(NC3CC3)n3ncc(C#N)c3n2)cc1-n1cnnc1

IC50 [1]: 50.1 nM
IC50 [2]: 10000 nM
SMILES: CN(CCN1CCCC1)c1ccc(Nc2cc(NC3CC3)n3ncc(C#N)c3n2)cc1-n1cnnc1

IC50 [1]: 50.1 nM
IC50 [2]: > 10000 nM
SMILES: N#Cc1cnn2c(NC3CC3)cc(Nc3cccc(-c4ncns4)c3)nc12

IC50 [1]: 31.6 nM
IC50 [2]: 5010 nM
Kinetic_solubility [3]: 21 µg/mL
SMILES: CN(C)CCn1ccc(Nc2cc(Nc3cccc(-n4cnnc4)c3)nc3c(C#N)cnn23)n1

IC50 [1]: 31.6 nM
IC50 [2]: > 10000 nM
SMILES: Cc1nccn1-c1cccc(Nc2cc(NC3CC3)n3ncc(C#N)c3n2)c1
